Where only a bound is given, the exact number is not on record here.

The first test deals with t-HSC/Cl-6 cells. Briefly: MTT cell proliferation assay, activated t-HSC/Cl-6 cells. The test is classed as cell-based, human. The conditions noted are these: 36 h, mean ± SD, read-out: Inhibitory activity (IC50) in activated t-HSC/Cl-6 cells. On the procedure: (§1) The cell viability was assessed with the MTT assay. The human hepatic stellate cells (t-HSC/Cl-6) and human normal liver cells (LO2) bought from the Cell Bank of Chinese Academy of Sciences (Shanghai, China) were seeded in 96-well plates for 24 h and cultured with high glucose including 10% fetal bovine serum, and 1% penicillin/streptomycin were used to culture cells at 37 °C under 5% CO2 and then were treated with serial dilutions of the compounds (25, 50, 100, 200, 400 μM) for another 36 h. For MTT assay, ten microliters of MTT reagent ([…]) was added to each well after removing all the liquid in the wells, and incubated at 37 °C in a humidified atmosphere of 5% CO2 air for 4 h. At the end of incubation, the growth medium was removed and replaced with 100 μL of DMSO at room temperature and agitating on a vortex for 20 min. The absorbance was determined at 490 nm as reference on a Bio-Rad micro-plate reader.
In general terms: Tetrazolium assays rely on reduction of a dye to a coloured formazan, in cell work by metabolically active cells.
`CC(C)=CC1CC(O)(C2CCC3(C)C2CCC2C4(C)CCC(OC5OC(CO)C(O)C(OC6OCC(O)C(O)C6O)C5OC5OC(C)C(O)C(O)C5O)C(C)(C)C4CCC23C)C(=O)O1` (stereo not drawn) [Compound 6]: the IC50 was found to be 99.9 ± 4.5 µM.

Consider `CC(C)=CCCC(O)(COC1OC(CO)C(O)C(O)C1O)C1CCC2(C)C1CCC1C3(C)CCC(OC4OC(CO)C(O)C(OC5OCC(O)C(O)C5O)C4OC4OC(C)C(O)C(O)C4O)C(C)(C)C3CCC12C` (stereo not drawn) [Compound 13], for which the IC50 is 106 ± 2.6 µM.

The test is the same for the next values; noted with them: Rattus norvegicus, T-HSC/Cl-6, 36 h, mean ± SD, read-out: Inhibitory activity (IC50) in activated t-HSC/Cl-6 cells.
On to `CC(C)=CCCC(O)(COC1OC(CO)C(O)C(O)C1O)C1CCC2(C)C1CCC1C3(C)CCC(OC4OC(CO)C(O)C(OC5OCC(O)C(O)C5O)C4OC4OCC(O)C(O)C4O)C(C)(C)C3CCC12C` (stereo not drawn) [Compound 1], for which the IC50 was over 200 µM.

As for `CC(C)=CCCC(O)(CO)C1CCC2(C)C1CCC1C3(C=O)CCC(OC4OCC(O)C(O)C4OC4OC(C)C(O)C(O)C4O)C(C)(C)C3CCC12C` (stereo not drawn) [Compound 2], the IC50 is 50.4 ± 1.4 µM.

For `C=C(C)OCC1OC(OC2CCC3(C)C(CCC4(C)C3CCC3C(C(O)(CCC=C(C)C)COC5OC(CO)C(O)C(O)C5O)CCC34C)C2(C)C)C(OC2OC(C)C(O)C(O)C2O)C(OC2OCC(O)C(O)C2O)C1O` (stereo not drawn) [Compound 3], the IC50 is over 200 µM.

On to `C=C(C)OCC1OC(OC2CCC3(C)C(CCC4(C)C3CCC3C(C5(O)CC(C=C(C)C)OC5=O)CCC34C)C2(C)C)C(OC2OC(C)C(O)C(O)C2O)C(OC2OCC(O)C(O)C2O)C1O` (stereo not drawn) [Compound 4], for which the IC50 amounted to 126 ± 9.7 µM.

In the case of `C=C(C)OCC1OC(OC2CCC3(C)C(CCC4(C)C3CCC3C(C5(O)CC(C=C(C)C)OC5O)CCC34C)C2(C)C)C(OC2OC(C)C(O)C(O)C2O)C(OC2OCC(O)C(O)C2O)C1O` (stereo not drawn) [Compound 5], the IC50 was over 200 µM.

`CC(C)=CCCC(O)(CO)C1CCC2(C)C1CCC1C3(C)CCC(OC4OC(CO)C(O)C(OC5OCC(O)C(O)C5O)C4OC4OC(C)C(O)C(O)C4O)C(C)(C)C3CCC12C` (stereo not drawn) [Compound 7]: the IC50 worked out at 152 ± 7.4 µM.

For `CC(C)=CC1CC(O)(C2CCC3(C)C2CCC2C4(C)CCC(OC5OC(CO)C(O)C(OC6OCC(O)C(O)C6O)C5OC5OC(C)C(O)C(O)C5O)C(C)(C)C4CCC23C)C(O)O1` (stereo not drawn) [Compound 8], the IC50 came out at 68.8 ± 3.2 µM.

The test system of a further test is LO2 cells. In words: MTT cell proliferation assay, LO2 normal liver cells. The test is classed as cell-based, human. The following applies: 36 h, MTT; read-out: Inhibitory activity (IC50) in LO2 cells. As to the method:
as §1
Consider `CC(C)=CC1CC(O)(C2CCC3(C)C2CCC2C4(C)CCC(OC5OC(CO)C(O)C(OC6OCC(O)C(O)C6O)C5OC5OC(C)C(O)C(O)C5O)C(C)(C)C4CCC23C)C(=O)O1` (stereo not drawn) [Compound 6], for which the IC50 is over 200 µM.

As for `CC(C)=CCCC(O)(COC1OC(CO)C(O)C(O)C1O)C1CCC2(C)C1CCC1C3(C)CCC(OC4OC(CO)C(O)C(OC5OCC(O)C(O)C5O)C4OC4OC(C)C(O)C(O)C4O)C(C)(C)C3CCC12C` (stereo not drawn) [Compound 13], the IC50 was over 200 µM.

The test is the same for the next values; noted with them: Homo sapiens, L02; 36 h, MTT; read-out: Inhibitory activity (IC50) in LO2 cells.
For `CC(C)=CCCC(O)(COC1OC(CO)C(O)C(O)C1O)C1CCC2(C)C1CCC1C3(C)CCC(OC4OC(CO)C(O)C(OC5OCC(O)C(O)C5O)C4OC4OCC(O)C(O)C4O)C(C)(C)C3CCC12C` (stereo not drawn) [Compound 1], the IC50 was over 200 µM.

On to `CC(C)=CCCC(O)(CO)C1CCC2(C)C1CCC1C3(C=O)CCC(OC4OCC(O)C(O)C4OC4OC(C)C(O)C(O)C4O)C(C)(C)C3CCC12C` (stereo not drawn) [Compound 2], for which the IC50 was over 200 µM.

Turning to `C=C(C)OCC1OC(OC2CCC3(C)C(CCC4(C)C3CCC3C(C(O)(CCC=C(C)C)COC5OC(CO)C(O)C(O)C5O)CCC34C)C2(C)C)C(OC2OC(C)C(O)C(O)C2O)C(OC2OCC(O)C(O)C2O)C1O` (stereo not drawn) [Compound 3], the IC50 was over 200 µM.

`C=C(C)OCC1OC(OC2CCC3(C)C(CCC4(C)C3CCC3C(C5(O)CC(C=C(C)C)OC5=O)CCC34C)C2(C)C)C(OC2OC(C)C(O)C(O)C2O)C(OC2OCC(O)C(O)C2O)C1O` (stereo not drawn) [Compound 4]: the IC50 is over 200 µM.

For `C=C(C)OCC1OC(OC2CCC3(C)C(CCC4(C)C3CCC3C(C5(O)CC(C=C(C)C)OC5O)CCC34C)C2(C)C)C(OC2OC(C)C(O)C(O)C2O)C(OC2OCC(O)C(O)C2O)C1O` (stereo not drawn) [Compound 5], the IC50 is over 200 µM.

With `CC(C)=CCCC(O)(CO)C1CCC2(C)C1CCC1C3(C)CCC(OC4OC(CO)C(O)C(OC5OCC(O)C(O)C5O)C4OC4OC(C)C(O)C(O)C4O)C(C)(C)C3CCC12C` (stereo not drawn) [Compound 7], the IC50 is over 200 µM.

In the case of `CC(C)=CC1CC(O)(C2CCC3(C)C2CCC2C4(C)CCC(OC5OC(CO)C(O)C(OC6OCC(O)C(O)C6O)C5OC5OC(C)C(O)C(O)C5O)C(C)(C)C4CCC23C)C(O)O1` (stereo not drawn) [Compound 8], the IC50 was over 200 µM.
